This experiment has as its target T1, Human Type I Steroid 5α-Reductase (Homo sapiens, UniProt P18405).
T1 construct: Preparation of Type I 5α-Reductase from Human Scalp; from tissue; host or cells: human scalp skin (punch biopsies from hair transplant graft recipient sites), 100,000 x g pellet of homogenate
T1 sequence (P18405 1-259): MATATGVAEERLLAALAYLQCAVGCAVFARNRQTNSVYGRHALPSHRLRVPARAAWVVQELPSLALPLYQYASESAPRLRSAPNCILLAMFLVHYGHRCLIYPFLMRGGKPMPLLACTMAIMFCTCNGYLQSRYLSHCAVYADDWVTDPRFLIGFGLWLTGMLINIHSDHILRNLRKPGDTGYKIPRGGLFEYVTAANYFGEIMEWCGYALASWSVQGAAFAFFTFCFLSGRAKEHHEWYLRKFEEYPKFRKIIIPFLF
The experiment is described as follows: Human Type I Steroid 5α-Reductase homogenate assay (human scalp enzyme; conversion of [3H]-testosterone to [3H]-5α-dihydrotestosterone and other 5α-reduced metabolites). It is filed as biochemical. The note with it: 0.3 μM; compared to control reaction mixtures; 50 nM [3H]-testosterone, pH 7.5, 25°, 180 min. An excerpt:
Methodology of Human Type I Steroid 5α-Reductase Assays
The subcutaneous tissue was cut away and discarded. The skin was frozen with liquid nitrogen and pulverized to powder. […] The homogenization procedure consisted of four 15 second pulses. Connective tissue was cleared from the probe with forceps between pulses. […] The pellet was resuspended by homogenization with a Dounce homogenizer using the same buffer solution. An aliquot was taken for protein determination by the Lowry method, Lowry, et al., Protein Measurement with the Folin Phenol Reagent, J. Biol. Chem., 193, 265-75 (1951). Aliquots of the enzyme preparation were stored at -80° until use.
The reaction was initiated by the addition of 0.5 mg of Type I 5α-reductase. The reaction mixture was incubated at 25° for 180 min, and terminated by the addition of 1 mL ice-cold stopping solution. […] The samples were prepared for high performance liquid chromatography by solid phase extraction. […] The reaction mixtures were then applied to the columns. The columns were subsequently washed with 5 mL of acetone:water (1:4), followed by 0.3 mL of methanol. The samples were then eluted with 3 mL of methanol and collected in 20 mL scintillation vials. Three mL of water was then added to each scintillation vial. […] The column temperature was maintained at 35° and the flow rate was 1.5 mL/min.
For `CN1C(=O)CC[C@]2(C)c3ccc(-c4cccc(NC(=O)C(C)(C)C)c4)cc3CC[C@@H]12` [Example 34, (+)-(4aR)-(10bR)-4-methyl-8-(3-t-butylcarboxamidophenyl)-10b-methyl-1,2,3,4,4a,5,6,10b-octahydrobenzo[f]quinolin-3-one], the “percent inhibition of Type I 5AR” value was determined as 13%.

Regarding `CN1C(=O)CC[C@]2(C)c3ccc(-c4cccc(NC(=O)C5CCN(Cc6ccccc6)CC5)c4)cc3CC[C@@H]12` [Example 209, (+)-(4aR)-(10bR)-4-methyl-8-(3-[1-benzyl-4-piperidinyl-carboxamido]phenyl)-10b-methyl-1,2,3,4,4a,5,6,10b-octahydrobenzo[f]quinolin-3-one], the “percent inhibition of Type I 5AR” value is 24%.

Turning to `CN1C(=O)CC[C@]2(C)c3ccc(-c4ccc(-c5ccc(NC(=O)C(C)(C)C)s5)cc4)cc3CC[C@@H]12` [Example 222, (+)-(4aR)-(10bR)-4-methyl-8-(4-[(2-t-butylcarbonylamino]-5-thienyl]phenyl)-10b-methyl-1,2,3,4,4a,5,6,10b-octahydro-benzo[f]quinolin-3-one], the “percent inhibition of Type I 5AR” value is 86%.

Consider “(+)-(4aR)-(10bR)-4-methyl-8-benzyloxycarbonyl-10b-methyl-1,2,3,4,4a,5,6,10b-octahydrobenzo[f]quinolin-3-one [Example 144]”, for which the “percent inhibition of Type I 5AR” value was found to be 90%.

The values are drawn from US5670514A, “Compositions for inhibiting bone loss” (priority 1996, dated 1997).
